This assay concerns the target T1, HIV protease (Human immunodeficiency virus type 1 group M subtype B, UniProt P12497).
T1 construct: HIV protease expressed in Escherichia coli; made in house; host or cells: Escherichia coli
As to the kind of experiment: Assay for Inhibition of Recombinant HIV Protease (APRIN 2.1). It is filed as biochemical. The conditions noted are these: Conc. 1 ng/ml; read-out: APRIN 2.1 Act. (% Inhib.). As to the method: Assay for Inhibition of Recombinant HIV Protease (APRIN 2.1)
Inhibition studies were performed on the reaction of the HIV protease expressed in Escherichia coli with a tritiated peptide substrate, [^3 H]-acetyl-Val-Ser-Gln-Asn-(beta-napthyl-Ala)-Pro-Ile-Val-Gln-Gly-Arg -Arg-NH2 (MW 1800). The two arginine residues at the carboxyl terminus give this peptide an overall positive charge at acidic pH and enable it to bind to the H^+ form of DOWEX AG-50W-X8 resin and similar resins.
Aliquots of 25 μl containing 6.0-8.0 nM HIV protease in assay buffer (100 mM sodium acetate, pH 5.5 and 0.1% BSA) are placed in assay tubes. The reaction is initiated by addition of 25 μl aliquots of 4.2 μM tritiated peptide substrate in 100 mM sodium acetate, pH 5.5. After incubation for 60 min at 37° C., the reaction is stopped with 100 μl of 5% H3 PO4, then analysed by application of column chromatography.

Turning to `CC(C)(C)OC(=O)N[C@@H](Cc1ccccc1)[C@@H](O)C[C@@H](Cc1ccc(OCC(=O)O)cc1)C(=O)N[C@H]1c2ccccc2C[C@H]1O` [L-694,746], the inhibition at 0.001 µg/mL was found to be 88%.
